# Positions of bridges follow the written chain, without caps; N, C: chain ends. Non-standard residues stand in square brackets, D forms with d. Residues, ends and D or L forms follow the SMILES beside them. *: point of attachment. DOTA = O=C(O)CN1CCN(CC(=O)O)CCN(CC(=O)*)CCN(CC(=O)O)CC1; Trp(5-F) = N[C@@H](Cc1c[nH]c2ccc(F)cc12)C(=O)O; 4Pal = N[C@@H](Cc1ccncc1)C(=O)O; Cha = N[C@@H](CC1CCCCC1)C(=O)O; Tle = CC(C)(C)[C@H](N)C(=O)O; hLeu = CC(C)CC[C@H](N)C(=O)O; Nle = CCCC[C@H](N)C(=O)O; Sar = CNCC(=O)O
# Target: T1, human 4lg B7-H3 (Homo sapiens, UniProt Q5ZPR3)
# T1 sequence (Q5ZPR3 29-534): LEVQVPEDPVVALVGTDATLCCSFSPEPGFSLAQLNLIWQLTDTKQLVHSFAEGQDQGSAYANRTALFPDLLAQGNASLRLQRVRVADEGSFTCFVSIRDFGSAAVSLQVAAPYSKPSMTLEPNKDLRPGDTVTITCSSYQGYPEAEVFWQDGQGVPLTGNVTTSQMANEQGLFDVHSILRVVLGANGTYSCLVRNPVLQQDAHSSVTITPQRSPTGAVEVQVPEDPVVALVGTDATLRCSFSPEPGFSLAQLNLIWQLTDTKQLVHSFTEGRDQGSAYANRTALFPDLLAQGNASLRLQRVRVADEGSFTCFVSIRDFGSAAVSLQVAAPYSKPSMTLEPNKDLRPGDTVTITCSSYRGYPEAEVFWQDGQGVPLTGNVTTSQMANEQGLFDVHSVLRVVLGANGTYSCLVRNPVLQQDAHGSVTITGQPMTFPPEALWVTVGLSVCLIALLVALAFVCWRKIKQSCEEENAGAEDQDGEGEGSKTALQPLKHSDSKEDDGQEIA
# Test: Affinity determination by surface plasmon resonance (SPR) to 4Ig B7-H3
# Details: SPR KD—25° C., 4Ig B7-H3; 25° C. flow cell temperature
row,Kd [nM],Structure (SMILES)
1,10 to 100,"CCCC[C@H](NC(C)=O)C(=O)N[C@@H](Cc1ccc(O)cc1)C(=O)N[C@H]1CSSC[C@@H](C(=O)N[C@@H](Cc2c[nH]c3ccccc23)C(=O)N[C@@H](Cc2ccccc2)C(=O)N[C@H](C(=O)N[C@H](CCCCNC(=O)CN2CCN(CC(=O)O)CCN(CC(=O)O)CCN(CC(=O)O)CC2)C(N)=O)[C@@H](C)O)NC(=O)[C@H](Cc2ccc(O)cc2)NC(=O)[C@H](C(C)C)NC(=O)[C@H](CC(=O)O)NC(=O)[C@H](Cc2ccc(O)cc2)NC(=O)[C@H](CCCCNC(C)=O)NC(=O)CNC(=O)[C@H](C(C)C)NC1=O [compound 65, Ac-Nle-Y-C-V-G-Lys(Ac)-Y-D-V-Y-C-W-F-Thr-dLys(DOTA)-CONH2] (Ac-[Nle]YCVGK(Ac)YDVYCWFT[dK](DOTA)-NH2; disulfide 3-11)"
2,10 to 100,"CCCC[C@H](NC(C)=O)C(=O)N[C@@H](Cc1ccc(O)cc1)C(=O)N[C@H]1CSSC[C@@H](C(=O)N[C@@H](Cc2c[nH]c3ccccc23)C(=O)N[C@@H](Cc2ccccc2)C(=O)N[C@H](C(=O)N[C@H](CCCCNC(=O)CN2CCN(CC(=O)O)CCN(CC(=O)O)CCN(CC(=O)O)CC2)C(N)=O)[C@@H](C)O)NC(=O)[C@H](Cc2ccc(O)cc2)NC(=O)[C@H](C(C)C)NC(=O)[C@H](CC(=O)O)NC(=O)[C@H](Cc2ccc(O)cc2)NC(=O)[C@H](CCCC)NC(=O)CNC(=O)[C@H](C(C)C)NC1=O [compound 66, Ac-Nle-Y-C-V-G-Nle-Y-D-V-Y-C-W-F-Thr-dLys(DOTA)-CONH2] (Ac-[Nle]YCVG[Nle]YDVYCWFT[dK](DOTA)-NH2; disulfide 3-11)"
3,1 to 10,"CC(=O)N[C@@H](CCC(C)C)C(=O)N[C@@H](Cc1ccc(O)cc1)C(=O)N[C@H]1CSSC[C@@H](C(=O)N[C@@H](Cc2c[nH]c3ccccc23)C(=O)N[C@@H](Cc2ccccc2)C(=O)N[C@H](C(=O)N[C@H](CCCCNC(=O)CN2CCN(CC(=O)O)CCN(CC(=O)O)CCN(CC(=O)O)CC2)C(N)=O)[C@@H](C)O)NC(=O)[C@H](Cc2ccc(O)cc2)NC(=O)[C@H](C(C)C)NC(=O)[C@H](CC(=O)O)NC(=O)[C@H](Cc2ccc(O)cc2)NC(=O)[C@H](CCCCN)NC(=O)CN(C)C(=O)[C@H](C(C)(C)C)NC1=O [compound 75, Ac-hLeu-Y-C-Tbg-Sar-K-Y-D-V-Y-C-W-F-Thr-dLys(DOTA)-CONH2] (Ac-[hLeu]YC[Tle][Sar]KYDVYCWFT[dK](DOTA)-NH2; disulfide 3-11)"
4,1 to 10,"CC(=O)N[C@@H](CCC(C)C)C(=O)N[C@@H](Cc1ccc(O)cc1)C(=O)N[C@H]1CSSC[C@@H](C(=O)N[C@@H](Cc2c[nH]c3ccc(F)cc23)C(=O)N[C@@H](Cc2ccccc2)C(=O)N[C@H](C(=O)N[C@H](CCCCNC(=O)CN2CCN(CC(=O)O)CCN(CC(=O)O)CCN(CC(=O)O)CC2)C(N)=O)[C@@H](C)O)NC(=O)[C@H](Cc2ccc(O)cc2)NC(=O)[C@H](C(C)C)NC(=O)[C@H](CC(=O)O)NC(=O)[C@H](Cc2ccc(O)cc2)NC(=O)[C@H](CCCCN)NC(=O)CN(C)C(=O)[C@H](C(C)(C)C)NC1=O [compound 78, Ac-hLeu-Y-C-Tbg-Sar-K-Y-D-V-Y-C-5FW-F-Thr-dLys(DOTA)-CONH2] (Ac-[hLeu]YC[Tle][Sar]KYDVYC[Trp(5-F)]FT[dK](DOTA)-NH2; disulfide 3-11)"
5,10 to 100,"CCCC[C@H](NC(C)=O)C(=O)N[C@@H](Cc1ccc(O)cc1)C(=O)N[C@H]1CSSC[C@@H](C(=O)N[C@@H](Cc2c[nH]c3ccccc23)C(=O)N[C@@H](Cc2ccccc2)C(=O)N[C@H](C(=O)N[C@H](CCCCNC(=O)CN2CCN(CC(=O)O)CCN(CC(=O)O)CCN(CC(=O)O)CC2)C(N)=O)[C@@H](C)O)NC(=O)[C@H](Cc2ccc(O)cc2)NC(=O)[C@H](C(C)C)NC(=O)[C@H](CC(=O)O)NC(=O)[C@H](Cc2ccc(O)cc2)NC(=O)[C@H](Cc2ccncc2)NC(=O)CNC(=O)[C@H](C(C)C)NC1=O [compound 79, Ac-Nle-Y-C-V-G-4PyA-Y-D-V-Y-C-W-F-Thr-dLys(DOTA)-CONH2] (Ac-[Nle]YCVG[4Pal]YDVYCWFT[dK](DOTA)-NH2; disulfide 3-11)"
6,10 to 100,"CCCC[C@H](NC(C)=O)C(=O)N[C@@H](Cc1ccc(O)cc1)C(=O)N[C@H]1CSSC[C@@H](C(=O)N[C@@H](Cc2c[nH]c3ccccc23)C(=O)N[C@@H](Cc2ccccc2)C(=O)N[C@H](C(=O)N[C@H](CCCCNC(=O)CN2CCN(CC(=O)O)CCN(CC(=O)O)CCN(CC(=O)O)CC2)C(N)=O)[C@@H](C)O)NC(=O)[C@H](Cc2ccc(O)cc2)NC(=O)[C@H](C(C)C)NC(=O)[C@H](CC(N)=O)NC(=O)[C@H](Cc2ccc(O)cc2)NC(=O)[C@H](CCCCN)NC(=O)CNC(=O)[C@H](C(C)C)NC1=O [compound 80, Ac-Nle-Y-C-V-G-K-Y-N-V-Y-C-W-F-Thr-dLys(DOTA)-CONH2] (Ac-[Nle]YCVGKYNVYCWFT[dK](DOTA)-NH2; disulfide 3-11)"
7,100 to 300,"CCCC[C@H](NC(C)=O)C(=O)N[C@@H](Cc1ccc(O)cc1)C(=O)N[C@H]1CSSC[C@@H](C(=O)N[C@@H](Cc2c[nH]c3ccccc23)C(=O)N[C@@H](Cc2ccccc2)C(=O)N[C@H](C(=O)N[C@H](CCCCNC(=O)CN2CCN(CC(=O)O)CCN(CC(=O)O)CCN(CC(=O)O)CC2)C(N)=O)[C@@H](C)O)NC(=O)[C@H](Cc2ccc(O)cc2)NC(=O)[C@H](C(C)C)NC(=O)[C@H](CO)NC(=O)[C@H](Cc2ccc(O)cc2)NC(=O)[C@H](CCCCN)NC(=O)CNC(=O)[C@H](C(C)C)NC1=O [compound 81, Ac-Nle-Y-C-V-G-K-Y-S-V-Y-C-W-F-Thr-dLys(DOTA)-CONH2] (Ac-[Nle]YCVGKYSVYCWFT[dK](DOTA)-NH2; disulfide 3-11)"
8,100 to 300,"CCCC[C@H](NC(C)=O)C(=O)N[C@@H](Cc1ccc(O)cc1)C(=O)N[C@H]1CSSC[C@@H](C(=O)N[C@@H](Cc2c[nH]c3ccccc23)C(=O)N[C@@H](CC2CCCCC2)C(=O)N[C@H](C(=O)N[C@H](CCCCNC(=O)CN2CCN(CC(=O)O)CCN(CC(=O)O)CCN(CC(=O)O)CC2)C(N)=O)[C@@H](C)O)NC(=O)[C@H](Cc2ccc(O)cc2)NC(=O)[C@H](C(C)C)NC(=O)[C@H](CC(=O)O)NC(=O)[C@H](Cc2ccc(O)cc2)NC(=O)[C@H](CCCCN)NC(=O)CNC(=O)[C@H](C(C)C)NC1=O [compound 82, Ac-Nle-Y-C-V-G-K-Y-D-V-Y-C-W-ChA-Thr-dLys(DOTA)-CONH2] (Ac-[Nle]YCVGKYDVYCW[Cha]T[dK](DOTA)-NH2; disulfide 3-11)"
9,1 to 10,"CCCC[C@H](NC(C)=O)C(=O)N[C@@H](Cc1ccc(O)cc1)C(=O)N[C@H]1CSSC[C@@H](C(=O)N[C@@H](Cc2c[nH]c3ccccc23)C(=O)N[C@@H](Cc2ccccc2)C(=O)N[C@H](C(=O)N[C@H](CCCCNC(=O)CN2CCN(CC(=O)O)CCN(CC(=O)O)CCN(CC(=O)O)CC2)C(N)=O)[C@@H](C)O)NC(=O)[C@H](Cc2ccc(O)cc2)NC(=O)[C@H](C(C)C)NC(=O)[C@H](CC(=O)O)NC(=O)[C@H](Cc2ccc(O)cc2)NC(=O)[C@H](CCCNC(=N)N)NC(=O)CNC(=O)[C@H](C(C)C)NC1=O [compound 85, Ac-Nle-Y-C-V-G-Arg-Y-D-V-Y-C-W-F-Thr-dLys(DOTA)-CONH2] (Ac-[Nle]YCVGRYDVYCWFT[dK](DOTA)-NH2; disulfide 3-11)"

# Source: patent US20250296959A1, “B7-H3 TARGETING PEPTIDES AND CONSTRUCTS THEREOF” (Mariana Oncology Inc., priority 2024, published 2025)
